The record followed here is ChEMBL document CHEMBL1201862, “PubChem BioAssay data set” (2004).

Among the test systems are DLD-1; DMS-114; DMS-273; HOP-18; KM-20L2; LXFL 529; SNB-78; RXF 631; XF498.
Common to all, as to experiment: NCI tumour cell line growth inhibition, 48 h

SMILES strings stand for the structures.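 Grown in 96-well plates, cells were treated for 48 hours with each compound at five concentrations. Insufficient inhibition: endpoint recorded as highest concentration tested. GI50 is the concentration that inhibits growth by half.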 The source made the active and inactive calls. No stated cut-off is given here; in the data, active = GI50 up to about 1.1 µM and inactive = higher. Where only a bound is given, the exact number is not on record here.

For the molecule `Cc1c(C)c(CC(=O)N2CC2)c(C)c(C)c1CC(=O)N1CC1`, the GI50 with DLD-1 was 17.5 µM (inactive); in the assay with DMS-114, 11.5 µM (inactive); with DMS-273, 2.18 µM (inactive); with HOP-18, 28.4 µM (inactive); in the assay with KM-20L2 it was 17.3 µM (inactive); with LXFL 529 it was 14.1 µM (inactive). The GI50 with SNB-78 was 13.7 µM (inactive).
On to `COc1ccc(C(O)c2cc(OC)c(OC)c(OC)c2)cc1` (stereo unspecified), for which the GI50 in the assay with DLD-1 was 38.2 µM (inactive); in the assay with DMS-114, 6.84 µM (inactive); with DMS-273 it was 4.21 µM (inactive); in the assay with HOP-18 it was 39 µM (inactive); in the assay with LXFL 529, 40.9 µM (inactive); in the assay with RXF 631 it was 30.1 µM (inactive). For the same molecule, the GI50 in the assay with SNB-78 was 44.4 µM (inactive).
For the molecule `COc1cc(/C=C(\C#N)C(N)=C(C#N)C#N)cc(O)c1O`, the GI50 in the assay with DLD-1 was > 100 µM (inactive); in the assay with DMS-114 it was 47 µM (inactive); with DMS-273, > 100 µM (inactive); with KM-20L2, > 100 µM (inactive); in the assay on LXFL 529 it was > 100 µM (inactive); with SNB-78 it was > 100 µM (inactive). Besides, the GI50 with XF498 was > 100 µM (inactive).
`CC1=C(C(=O)Nc2ccccc2)C(c2ccc(C3C(C(=O)Nc4ccccc4)=C(C)NC(C)=C3C(=O)Nc3ccccc3)cc2)C(C(=O)Nc2ccccc2)=C(C)N1`: the GI50 in the assay with DLD-1 is 2.38 µM (inactive); with DMS-114, 3.83 µM (inactive); in the assay on DMS-273 it was 2.62 µM (inactive); in the assay on HOP-18 it was 8.22 µM (inactive); in the assay on KM-20L2, 2.04 µM (inactive); in the assay on LXFL 529, 2.1 µM (inactive). Also, in the assay on XF498, the GI50 was 7.36 µM (inactive).
With `Nc1ccc(/N=N/c2ccc(-c3ccc(/N=N/c4c(S(=O)(=O)O)cc5cc(S(=O)(=O)O)c(/N=N/c6ccc([N+](=O)[O-])cc6)c(N)c5c4O)cc3)cc2)c2cc(S(=O)(=O)O)ccc12`, the GI50 with DLD-1, in the assay on DMS-273, in the assay with KM-20L2, with LXFL 529, in the assay with SNB-78 and in the assay with XF498 was > 100 µM (inactive) each time.
For the molecule `CCOC(=O)C1=C(C)N(NC(=O)Nc2ccccc2)C(=O)C1=P(c1ccccc1)(c1ccccc1)c1ccccc1`, the GI50 is 33.6 µM (inactive) in the assay on DLD-1; 32.2 µM (inactive) in the assay on DMS-114; 40.6 µM (inactive) in the assay with DMS-273; 58.1 µM (inactive) in the assay on HOP-18; 40.6 µM (inactive) in the assay on KM-20L2; 35.2 µM (inactive) with LXFL 529. The GI50 in the assay with XF498 is 31.8 µM (inactive).
For `COc1c(OC(C)=O)c(OC(C)=O)cc2c1-c1ccc(SC)c(=O)cc1C(NC(C)=O)CC2` (stereo unspecified), the GI50 is 0.908 µM (active) in the assay with DLD-1; 0.895 µM (active) in the assay with DMS-273; > 100 µM (inactive) in the assay with HOP-18; 0.7 µM (active) in the assay with KM-20L2; 0.368 µM (active) with LXFL 529; 0.287 µM (active) with SNB-78. Also, the GI50 in the assay with XF498 was 1.04 µM (active).
Regarding `Oc1ccc(Br)cc1/C=N/c1ccc(/N=C/c2cc(Br)ccc2O)cc1`, the GI50 with DLD-1, with DMS-114, in the assay with KM-20L2 and with SNB-78 was > 100 µM (inactive) throughout.
For the molecule `COc1ccccc1C1C(Cl)C(=O)N1NC(=O)Cc1ccccc1` (stereo unspecified), the GI50 was 37.5 µM (inactive) in the assay with DMS-114; 43.3 µM (inactive) with DMS-273; 30.7 µM (inactive) in the assay on HOP-18; 75.9 µM (inactive) with KM-20L2; > 100 µM (inactive) in the assay with LXFL 529; > 100 µM (inactive) in the assay with SNB-78. Besides, the GI50 in the assay with XF498 was > 100 µM (inactive).
Regarding `CCCCCCCCCC(=O)CC(=O)c1c(O)cccc1O`, the GI50 in the assay on DLD-1 was 39.5 µM (inactive); with DMS-114, 30.1 µM (inactive); in the assay with DMS-273 it was 20.8 µM (inactive); in the assay on HOP-18 it was 25.4 µM (inactive); in the assay with KM-20L2, 33.8 µM (inactive); in the assay with LXFL 529, 38.8 µM (inactive). The figures for the GI50 in the assay on SNB-78 and in the assay on XF498 were 40 µM (inactive) and 15.3 µM (inactive), respectively.
With `CN(N=O)C(=O)NC(CCCCNC(=O)OCc1ccccc1)C(=O)OCc1ccccc1` (stereo unspecified), the GI50 in the assay on DLD-1 is 33.8 µM (inactive); in the assay with DMS-114, 29 µM (inactive); in the assay with DMS-273, 33.2 µM (inactive); in the assay on KM-20L2, > 100 µM (inactive); with LXFL 529, 28.5 µM (inactive); with RXF 631 it was 19.9 µM (inactive). The GI50 with SNB-78 is 26.7 µM (inactive); with XF498, 13.2 µM (inactive).
Turning to `CC(C)C(=O)N1Cc2cc(Cl)cc(Cl)c2OC(=O)c2ccccc21`, the GI50 in the assay with DLD-1 is 29.9 µM (inactive); in the assay with DMS-114 it was 30.1 µM (inactive); in the assay with DMS-273 it was 38.7 µM (inactive); with HOP-18, 25.6 µM (inactive); in the assay with KM-20L2, 23.7 µM (inactive); in the assay on LXFL 529, 18.3 µM (inactive). Besides, the values for the GI50 in the assay with RXF 631 and with SNB-78 were 40.3 µM (inactive) and 67.9 µM (inactive), respectively.
On to `CCOC(=O)N(c1ccccc1)N(CC)C(=O)/C(C)=N/Nc1ccc([N+](=O)[O-])cc1`, for which the GI50 is 15.4 µM (inactive) with DLD-1; 17.9 µM (inactive) with DMS-114; 15.6 µM (inactive) in the assay with DMS-273; 19.7 µM (inactive) in the assay on HOP-18; 17.1 µM (inactive) in the assay with KM-20L2; 16.6 µM (inactive) in the assay with LXFL 529. In addition, the figures for the GI50 in the assay on SNB-78 and in the assay with XF498 were 20.8 µM (inactive) and 17.9 µM (inactive), respectively.
As to `c1cc(C2O[C@H]3CCCN3[C@@H]2c2ccncc2)ccn1` (stereo partly specified), the GI50 with DLD-1, in the assay on DMS-114, in the assay with DMS-273, in the assay with KM-20L2, with LXFL 529 and in the assay on SNB-78 was > 100 µM (inactive) in each case. Also, the GI50 in the assay with XF498 is > 100 µM (inactive).
For `Oc1c(-c2ccccc2)nc2ccccn12`, the GI50 in the assay with DLD-1, with DMS-114, in the assay with DMS-273, in the assay with KM-20L2, with LXFL 529 and in the assay with SNB-78 was > 100 µM (inactive) each time. Moreover, the GI50 in the assay with XF498 is > 100 µM (inactive).
On to `COc1cc([C@@H]2c3cc4c(c(O)c3C[C@H]3COC(=O)[C@@H]32)OCO4)cc(OC)c1O`, for which the GI50 was < 0.02 µM (active) in the assay on DMS-114; < 0.02 µM (active) in the assay on DMS-273; < 0.02 µM (active) with HOP-18; 0.00257 µM (active) with LXFL 529; < 0.02 µM (active) in the assay with SNB-78.
For `CCOC(=O)NC(=O)c1cn(CCCCCCCCCCC(=O)NCCCN2CCN(CCCNC(=O)CCCCCCCCCCn3cc(C(=O)NC(=O)OCC)c(=O)[nH]c3=O)CC2)c(=O)[nH]c1=O`, the GI50 in the assay on DLD-1, in the assay with DMS-114, in the assay on DMS-273, in the assay on HOP-18, in the assay on KM-20L2 and in the assay on LXFL 529 was > 100 µM (inactive) throughout. For the same molecule, the GI50 with SNB-78 and in the assay on XF498 was > 100 µM (inactive) in each case.
`c1ccc(-c2csc3ncn4cnnc4c23)cc1`: the GI50 with DLD-1 is 82.2 µM (inactive); in the assay with DMS-114, 57.9 µM (inactive); in the assay with DMS-273, 72.8 µM (inactive); in the assay with HOP-18 it was 52 µM (inactive); in the assay with KM-20L2, > 100 µM (inactive); in the assay on LXFL 529, 92.9 µM (inactive). Also, the results for the GI50 in the assay on RXF 631 and with SNB-78 were 95.7 µM (inactive) and > 100 µM (inactive), respectively.
